The nature of data set [1]: Solubility of rifabutin in alkanes. Type of data set: physicochemical.
Data set [2] is described as follows: Sub-visible particle test (10 mg/mL in 0.9% saline, particle counter). Type of data set: physicochemical. How it is done:
As these particle forming impurities are not described in the current pharmacopeial analytical methods, a new testing method was developed which is described in the methods below. In brief, rifabutin powder is dissolved in a mixture of dimethyl isosorbide, acetic acid and water. Subsequently, the obtained solution is diluted in 0.9% saline to a final concentration of 10 mg/mL and sub-visible particles are determined. The established limits for this test are: (1) not more than 12.5 particles/mL greater than 10 μm in diameter, and (2) not more than 3 particles/mL greater than 25 μm in diameter. Considering that current concentrations used for the intravenous administration of rifabutin are well below 10 mg/mL, these limits are much more stringent than the current pharmacopeial limits.
About 400 mg of rifabutin is dissolved in 2 mL of a mixture of isosorbide dimethyl ether (DMI) and acetic acid in water (40% DMI, 2.4% acetic acid). The obtained solution is filtered through a 0.2 μm Nylon filter and […] of 0.9% saline solution to a final concentration of 10 mg/mL. Solutions are stirred for 15 min on a roller mixer to allow sub-visible particle formation.
Sub-visible particles are determined using a suitable instrument (e.g. PAMAS SVSS particle counter). Particle numbers in the 10 mg/mL solution should be not more than 12.5 particles/mL greater 10 μm and not more than […] greater 25 μm to pass the test.

[3] abbreviates: Method 1, Example 1 (pentane Soxhlet extraction).
Where [4] appears, read: Method 2, Example 2 (pentane / silica gel columns, acetone elution).
Setting [5] is: Method 3, Example 3 (dissolved in n-heptane 50° C., filtered).

The structures appear in SMILES notation.

On to `CO[C@H]1/C=C/O[C@@]2(C)Oc3c(C)c(O)c4c(c3C2=O)C2=NC3(CCN(CC(C)C)CC3)NC2=C(NC(=O)/C(C)=C\C=C\[C@H](C)[C@H](O)[C@@H](C)[C@@H](O)[C@@H](C)[C@H](OC(C)=O)[C@@H]1C)C4=O` [Rifabutin], for which the Solubility result in data set [1] was “low solubility”.
For the compound `CO[C@H]1/C=C/O[C@@]2(C)Oc3c(C)c(O)c4c(c3C2=O)C2=NC3(CCN(CC(C)C)CC3)NC2=C(NC(=O)/C(C)=C\C=C\[C@H](C)[C@H](O)[C@@H](C)[C@@H](O)[C@@H](C)[C@H](OC(C)=O)[C@@H]1C)C4=O` [original, rifabutin], the “Sub-visible particles ≥10 μm” value was determined as 138.3 particles/mL in data set [2] (setting [3]), 1804.0 particles/mL in data set [2] (setting [4]) and 1804.0 particles/mL in data set [2] (setting [5]). Also, the “Sub-visible particles ≥25 μm” value in data set [2] (setting [3]) came to 16.3 particles/mL; in data set [2] (setting [4]), 98.7 particles/mL; in data set [2] (setting [5]), 98.7 particles/mL.
With `CO[C@H]1/C=C/O[C@@]2(C)Oc3c(C)c(O)c4c(c3C2=O)C2=NC3(CCN(CC(C)C)CC3)NC2=C(NC(=O)/C(C)=C\C=C\[C@H](C)[C@H](O)[C@@H](C)[C@@H](O)[C@@H](C)[C@H](OC(C)=O)[C@@H]1C)C4=O` [purified, rifabutin], the “Sub-visible particles ≥10 μm” value in data set [2] (setting [3]) turned out to be 8.4 particles/mL; in data set [2] (setting [4]), 2.6 particles/mL; in data set [2] (setting [5]), 7.1 particles/mL. Further, the “Sub-visible particles ≥25 μm” value came to 0.4 particles/mL in data set [2] (setting [3]), 0.0 particles/mL in data set [2] (setting [4]) and 0.2 particles/mL in data set [2] (setting [5]).

The values above are taken from patent publication US20250360114A1, “INTRAVENOUS RIFABUTIN FORMULATION AND METHODS OF MAKING” (BIOVERSYS AG, priority 2024, published 2025).
